How the values were obtained:
[1] = test system: α1-acid glycoprotein (AGP); assay: HPLC on AGP-based chiral stationary phase (ChromTech Chiral-AGP column); type: binding, human; settings: 10 mM pH 7 phosphate buffer, 25 °C
Method: HPLC using a protein-based chiral stationary phase is a fully automated method for obtaining rapid information about the binding of compounds to the respective proteins. Enantioseparation occurs in the case of unequal binding constants of the individual enantiomers to the immobilized proteins, thus allowing enantioselective binding to be characterized even when a racemic mixture was injected. As a preliminary step, the enantiospecific binding was investigated on columns containing AGP and HSA in various alcohol:buffer mixtures. A pH 7 phosphate buffer was employed as the aqueous part of the mobile phase, while for the organic part, three different alcohols were evaluated. […]
(§1) Chromatographic measurements were carried out on two separate HPLC systems. The AGP binding study was performed on a Waters 2695e chromatographic system paired with a Waters 2996 PDA detector, controlled by Empower 3 FR5 (Waters Corp., Milford, MA, USA), while the HSA binding study was performed on an Agilent 1100 HPLC system, consisting of an inline degasser (G1322A), a quaternary pump (G1311A), an automatic injector (G1329A) paired with sample thermostat (G1330A), a column thermostat (G1316A), and a diode array detector (G1315A) with Agilent Chemstation B04.03-SP2 software (Agilent, Bronnwald, Germany). For the binding studies, two protein-based chiral stationary phases were utilized. The chromatographic binding study for AGP was conducted on a ChromTech Chiral-AGP column (150 mm × 4.0 mm; ChromTech Ltd., Congleton, UK), while the binding study for HSA was performed on a Daicel Chiralpak HSA column (50 mm × 4.0 mm; Daicel Corp., Osaka, Japan). The detection wavelength was 210 nm for all measurements. The stock solutions of PPIs were prepared at a concentration of 1 mg/mL in MeOH. Subsequent dilutions were prepared using water. The injected samples were mixed and diluted from the stock solutions. The final concentration for the eutomer was 0.2 mg/mL, and for the distomer, it was 0.1 mg/mL. A volume of 2 μL was injected. To mitigate the instability of PPIs in aqueous solutions, the samples were kept at a temperature of 4 °C.

[2] = target: T1, human serum albumin (HSA) (Homo sapiens, UniProt P02768); assay: HPLC on HSA-based chiral stationary phase (Daicel Chiralpak HSA column); type: binding; settings: HSA column, 10 mM pH 7 phosphate buffer, 25 °C
Method: HPLC using a protein-based chiral stationary phase is a fully automated method for obtaining rapid information about the binding of compounds to the respective proteins. Enantioseparation occurs in the case of unequal binding constants of the individual enantiomers to the immobilized proteins, thus allowing enantioselective binding to be characterized even when a racemic mixture was injected. As a preliminary step, the enantiospecific binding was investigated on columns containing AGP and HSA in various alcohol:buffer mixtures. A pH 7 phosphate buffer was employed as the aqueous part of the mobile phase, while for the organic part, three different alcohols were evaluated.
In the following step, we investigated the effect of changing some other chromatographic conditions on the protein binding. The pH of the aqueous phase influenced the protonation state of both the analyte and the proteins. It should be noted that the pH tolerance of protein-based columns is narrow due to the possible denaturation of proteins. Taking into account the guidelines of the manufacturer, three different pH values were investigated (pH 6, 6.5, and 7) at a 95:5 (v/v%) buffer:IPA eluents ratio [49]. The buffer was uniformly 10 mM phosphate. […] The effect of different buffer constituents was also evaluated. In addition to phosphate buffer, ammonium acetate, ammonium bicarbonate, and sodium citrate were tested and compared under the same conditions.
as §1

[3] = target: T1, human serum albumin (HSA); assay: Displacement chromatography on HSA column with warfarin and ibuprofen as competitors; type: binding; settings: IPA:10 mM pH 7 phosphate buffer 1:99, 25 °C
Method: For identification of the binding site of HSA, a displacement chromatography and fluorescence displacement study were performed. In the case of chromatography, to the mobile phase, increasing concentrations of the competitors, warfarin and ibuprofen, that are known to bind to specific binding sites on HSA, Sudlow site I and Sudlow site II, respectively, were added. In the case of the fluorescence displacement study, the fluorescence quenching data of the PPI-HSA system in the presence of warfarin and ibuprofen were investigated.
(Chromatographic parameter: Column temperature: 25 °C,
mobile phase: IPA : 10 mM pH 7 sodium phosphate buffer 1:99, flow rate: 0.7 mL/min, detection

T1 sequence (P02768 25-609): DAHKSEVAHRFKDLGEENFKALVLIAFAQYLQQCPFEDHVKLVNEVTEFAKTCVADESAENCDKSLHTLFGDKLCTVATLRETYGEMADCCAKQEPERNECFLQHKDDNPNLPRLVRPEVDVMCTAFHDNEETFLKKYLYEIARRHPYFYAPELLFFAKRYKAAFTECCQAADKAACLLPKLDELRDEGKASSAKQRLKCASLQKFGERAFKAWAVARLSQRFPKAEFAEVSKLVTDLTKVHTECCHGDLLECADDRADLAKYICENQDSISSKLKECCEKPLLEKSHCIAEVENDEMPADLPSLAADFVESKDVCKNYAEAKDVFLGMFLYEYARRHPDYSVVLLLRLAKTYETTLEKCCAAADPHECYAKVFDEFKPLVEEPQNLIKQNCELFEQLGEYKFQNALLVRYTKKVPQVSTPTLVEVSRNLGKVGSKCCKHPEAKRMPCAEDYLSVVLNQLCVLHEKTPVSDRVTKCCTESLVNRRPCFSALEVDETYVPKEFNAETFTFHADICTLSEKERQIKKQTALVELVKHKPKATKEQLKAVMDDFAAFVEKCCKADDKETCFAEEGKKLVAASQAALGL

- k1 retention factor (first-eluting enantiomer) ([2]; 1% EtOH): 6.16
- k2 retention factor (second-eluting enantiomer) ([2]; 1% EtOH): 6.16
- k1 retention factor (first-eluting enantiomer) ([2]; 1% IPA): 7.21
- k2 retention factor (second-eluting enantiomer) ([2]; 1% IPA): 7.21
- k1 retention factor (first-eluting enantiomer) ([2]; 1% MeOH): 6.61
- k2 retention factor (second-eluting enantiomer) ([2]; 1% MeOH): 6.61
- k1 retention factor (first-eluting enantiomer) ([2]; 2.5% EtOH): 3.97
- k2 retention factor (second-eluting enantiomer) ([2]; 2.5% EtOH): 3.97
- k1 retention factor (first-eluting enantiomer) ([2]; 2.5% IPA): 5.45
- k2 retention factor (second-eluting enantiomer) ([2]; 2.5% IPA): 5.45
- k1 retention factor (first-eluting enantiomer) ([2]; 2.5% MeOH): 5.08
- k2 retention factor (second-eluting enantiomer) ([2]; 2.5% MeOH): 5.08
- k1 retention factor (first-eluting enantiomer) ([2]; 5% EtOH): 2.87
- k2 retention factor (second-eluting enantiomer) ([2]; 5% EtOH): 2.87
- k1 retention factor (first-eluting enantiomer) ([2]; 5% IPA): 3.32
- k2 retention factor (second-eluting enantiomer) ([2]; 5% IPA): 3.32
- k1 retention factor (first-eluting enantiomer) ([2]; 5% MeOH): 3.68
- k2 retention factor (second-eluting enantiomer) ([2]; 5% MeOH): 3.68
- k1 retention factor (first-eluting enantiomer) ([2]; 7.5% EtOH): 2.16
- k2 retention factor (second-eluting enantiomer) ([2]; 7.5% EtOH): 2.16
- k1 retention factor (first-eluting enantiomer) ([2]; 7.5% IPA): 2.37
- k2 retention factor (second-eluting enantiomer) ([2]; 7.5% IPA): 2.37
- k1 retention factor (first-eluting enantiomer) ([2]; 7.5% MeOH): 2.95
- k2 retention factor (second-eluting enantiomer) ([2]; 7.5% MeOH): 2.95
- k1 retention factor (first-eluting enantiomer) ([2]; 10% EtOH): 1.66
- k2 retention factor (second-eluting enantiomer) ([2]; 10% EtOH): 1.66
- k1 retention factor (first-eluting enantiomer) ([2]; 10% IPA): 1.79
- k2 retention factor (second-eluting enantiomer) ([2]; 10% IPA): 1.79
- k1 retention factor (first-eluting enantiomer) ([2]; 10% MeOH): 2.34
- k2 retention factor (second-eluting enantiomer) ([2]; 10% MeOH): 2.34
- k1 retention factor (first-eluting enantiomer) ([2]; 12.5% IPA): 1.37
- k2 retention factor (second-eluting enantiomer) ([2]; 12.5% IPA): 1.37
- k retention factor ([3]; ibuprofen 0 mM): 7.21
- k retention factor ([3]; ibuprofen 0.01 mM): 6.67
- k retention factor ([3]; ibuprofen 0.05 mM): 5.87
- k retention factor ([3]; ibuprofen 0.1 mM): 5.05
- k retention factor ([3]; warfarin 0 mM): 7.21
- k retention factor ([3]; warfarin 0.01 mM): 5.81
- k retention factor ([3]; warfarin 0.05 mM): 4.98
- k retention factor ([3]; warfarin 0.1 mM): 4.73
Structure (SMILES): COCCCOc1ccnc(C[S+]([O-])c2nc3ccccc3[nH]2)c1C (stereo not shown) [Rabeprazole, rabeprazole]
- k1 retention factor (first-eluting enantiomer) ([1]; 2.5% IPA): 14.89
- k2 retention factor (second-eluting enantiomer) ([1]; 2.5% IPA): 21.66
- k1 retention factor (first-eluting enantiomer) ([1]; 5% EtOH): 13.04
- k2 retention factor (second-eluting enantiomer) ([1]; 5% EtOH): 20.84
- k1 retention factor (first-eluting enantiomer) ([1]; 5% IPA): 6.68
- k2 retention factor (second-eluting enantiomer) ([1]; 5% IPA): 7.89
- k1 retention factor (first-eluting enantiomer) ([1]; 5% MeOH): 20.89
- k2 retention factor (second-eluting enantiomer) ([1]; 5% MeOH): 42.82
- k1 retention factor (first-eluting enantiomer) ([1]; 7.5% EtOH): 7.21
- k2 retention factor (second-eluting enantiomer) ([1]; 7.5% EtOH): 10.50
- k2 retention factor (second-eluting enantiomer) ([1]; 7.5% IPA): 3.90
- k1 retention factor (first-eluting enantiomer) ([1]; 7.5% MeOH): 12.90
- k2 retention factor (second-eluting enantiomer) ([1]; 7.5% MeOH): 26.14
- k1 retention factor (first-eluting enantiomer) ([1]; 10% EtOH): 4.39
- k2 retention factor (second-eluting enantiomer) ([1]; 10% EtOH): 5.89
- k1 retention factor (first-eluting enantiomer) ([1]; 10% IPA): 2.47
- k2 retention factor (second-eluting enantiomer) ([1]; 10% IPA): 2.47
- k1 retention factor (first-eluting enantiomer) ([1]; 10% MeOH): 8.63
- k2 retention factor (second-eluting enantiomer) ([1]; 10% MeOH): 16.71
- k1 retention factor (first-eluting enantiomer) ([1]; 12.5% IPA): 1.72
- k2 retention factor (second-eluting enantiomer) ([1]; 12.5% IPA): 1.72
- k1 retention factor (first-eluting enantiomer) ([1]; 15% EtOH): 2.11
- k2 retention factor (second-eluting enantiomer) ([1]; 15% EtOH): 2.48
- k1 retention factor (first-eluting enantiomer) ([1]; 15% IPA): 1.27
- k2 retention factor (second-eluting enantiomer) ([1]; 15% IPA): 1.27
- k1 retention factor (first-eluting enantiomer) ([1]; 15% MeOH): 5.97
- k2 retention factor (second-eluting enantiomer) ([1]; 15% MeOH): 11.00
